Non-standard residues stand in square brackets, D forms with d. No end group written: not given here. NMeF = CN[C@@H](Cc1ccccc1)C(=O)O; Orn = NCCC[C@H](N)C(=O)O
Columns and labels:
A11 antibody = test: dot blot with A11 antibody; type: binding
From the text: The LDH release and caspase-3 activation studies indicate that trimers 3 and 4 behave similarly to oligomers of full-length Aβ, providing evidence for the biological significance of the triangular assembly. To further evaluate how the biological properties of trimers 3 and 4 compare to those of full-length Aβ, the reactivity of trimers 3 and 4 with the conformation specific antibody A11 was examined. […] The structures of the A oligomers recognized by the A11 antibody are not known. We investigated whether the A11 antibody recognizes trimers 3 and 4 by dot blot analysis.
A 10 mg/mL stock solution of peptides 1 or 2, or trimers 3 or 4 was prepared gravimetrically by dissolving 1 mg of each compound in 100 μL of deionized water that was either filtered through a 0.2 μm syringe filter. An aliquot of each stock solution was diluted with deionized water to make 3 mg/mL solutions. The 3 mg/mL solutions were then serially diluted with deionized water to create 1.5 mg/mL, 0.75 mg/mL, and 0.37 mg/mL solutions. A 5 μL aliquot of each solution from the serial dilution was combined with 5 μL of a 2× solution of phosphate buffered saline (PBS) at pH 7.4 to generate 1.5 mg/mL, 0.75 mg/mL, and 0.37 mg/mL, and 0.18 mg/mL buffered solutions of peptides 1 or 2 or trimers 3 or 4. A 1-μL aliquot of each buffered solution was spotted onto a nitrocellulose membrane and allowed to aft dry (˜5 min). Non-reactive sites were blocked with 10% (w/v) non-fat powdered milk in low-Tween Tris-buffered saline (TBS-IT: 20 mM Tris, 137 mM NaCl; 0.01% Tween 20, pH 7.6) for 1 h at room temperature with rocking. The membrane was then incubated while rocking overnight at 4° C. in primary A11 antibody (200 μg/mL) in 5% non-fat powdered milk in TBS-IT. The next day, the membrane was washed with TBS-IT for 5 min (3×). The membrane was then incubated while rocking with horseradish peroxidase conjugated goat anti-rabbit antibody (100 μg/mL) (Jackson ImmunoResearch catalog #111-035-003) in 5% non-fat powdered milk in TBS-IT for 1 h at room temperature. The membrane was then washed with TBS-IT for 5 min (3×). A 10 mL portion of chemiluminescence substrate (Thermo Scientific SuperSignal West Femto Maximum Sensitivity Substrate, product #34095) was prepared according to manufacturer's protocol and poured onto the membrane. The membrane was allowed to incubate in the chemiluminescence substrate for ˜10 min before imaging. The blot was imaged using a standard digital SLR camera.

[1] = Tricine SDS-PAGE with silver staining; type: physicochemical
From the text: Trimer 3 migrates as a single band at a molecular weight consistent with a hexamer. Trimer 4, in contrast, migrates as two distinct bands: a band consistent with the molecular weight of a dodecamer, and a band consistent with the molecular weight of a trimer.
Peptide 8 assembles to form a hexamer in SDS-PAGE. […] To further confirm the oligomerization state of […], it was compared to covalent trimers 3 and 4 (FIGS. 19A and 19B), which was previously determined to migrate respectively as 10.6 kDa hexamers and 21.2 kDa dodecamers in equilibrium with the 5.3 kDa trimers. Peptide 8 migrates at the same molecular weight as the hexamer band of trimer 3, providing further evidence that peptide 8 assembles to form a hexamer in SDS-PAGE.
The oligomerization of peptides 1 and 2 and trimers 3 and 4 was studied by Tricine SDS-PAGE.
Each peptide or trimer was dissolved in deionized water to a concentration of 10 mg/mL. An aliquot of the 10 mg/mL solutions was diluted with deionized water to create 2 mg/mL solutions of peptides 1 and 2, or 0.12 mg/mL solutions of trimers 3 and 4. The […] of peptides 1 and 2, as well as the 0.12 mg/mL solutions of trimers 3 and 4 were further diluted with 2×SDS-PAGE loading buffer (100 mM Tris buffer at pH 6.8, 20% (v/v) glycerol, and 4% SDS) to create 1 mg/mL working solutions of peptides 1 and 2, and 0.06 mg/mL working solutions of trimers 3 and 4. A 5 μL aliquot of each working solution was run on a 16% polyacrylamide gel with a 4% stacking polyacrylamide gel. The gels were run at a constant 60 volts at 4° C.
Staining with silver nitrate was used to visualize peptides 1 and 2 and trimers 3 and 4 in the SDS-PAGE gel. Briefly, the gel was removed from the casting glass and rocked in fixing solution (50% (v/v) methanol and 5% (v/v) acetic acid in deionized water) for 20 min. Next, the fixing solution was discarded and the gel was rocked in 50% (v/v) methanol for 10 min. Next, the 50% methanol was discarded and the gel was rocked in deionized water for 10 min. Next, the water was discarded and the gel was rocked in 0.02% (w/v) sodium thiosulfate in deionized water for 1 min. The sodium thiosulfate was discarded and the gel was rinsed with deionized water (2×). After the last rinse, the gel was submerged in chilled 0.1% (w/v) silver nitrate in deionized water and rocked at 4° C. for 20 min. Next, the silver nitrate solution was discarded and the gel was rinsed with deionized water (2×). To develop the gel, the gel was incubated in developing solution (2% w/v sodium carbonate, 0.04% formaldehyde until the desired intensity of staining was reached (˜1-3 min). When the desired intensity of staining was reached, the development was topped by discarding the developing solution and submerging the gel in 5% acetic acid.

| Substance | A11 reactivity (A11 antibody) | reaction with A11 antibody (A11 antibody) | oligomer size by SDS-PAGE [1] | oligomer state by migration in SDS-PAGE [1] |
| --- | --- | --- | --- | --- |
| trimer 4: symmetric tris-disulfide crosslinked trimer generated from peptide 4 (chain 1 [Orn]CVF[NMeF]CED; chain 2 [Orn]AIIGL[Orn]V; also: symmetric tris-disulfide crosslinked trimer, macrocyclic by macrolactamization, linkage of strands not given here) | yes | react with the A11 antibody | – | – |
| peptide 1: macrocyclic β-sheet peptide: Aβ17-23 and Aβ30-36 strands linked by two δOrn turns, Orn35, N-methyl on G33 (Seq. ID 18-19) | no | do not | 1-2 | – |
| trimer 3: symmetric tris-disulfide crosslinked trimer generated from peptide 3 (chain 1 [Orn]CVFFCED; chain 2 [Orn]AIIGL[Orn]V; not fully specified (some residues); also: symmetric tris-disulfide crosslinked trimer, macrocyclic by macrolactamization, linkage of strands not given here) | yes | react with the A11 antibody | 6 | hexamer |
| peptide 2: macrocyclic β-sheet peptide: Aβ17-23 and Aβ30-36 strands linked by two δOrn turns, Orn35, N-methyl on F20 (Seq. ID 20-21) | no | do not | 1-2 | monomer or dimer |
